Target: glucan synthase (GS) prepared from Candida albicans MY1055 (Candida albicans, UniProt O13428)
Assay: Glucan synthase inhibition (polymerization assay, 96-well)
Type: biochemical
Conditions: GS from C. albicans MY1055; 60 min incubation at 22° C.; read-out: Candida Albicans GS IC50 (converted)
Procedure: The in vitro evaluation of glucan synthase inhibitory activity of compounds was measured in a polymerization assay in 96-well format. Each well contained 100 μL of ^3H-UDPG at 0.5 mM (6000 to 8000 dpm/nmol), 50 mM HEPES pH 7.5 (Sigma), 10% w/v glycerol (Sigma), 1.5 mg/mL bovine serum albumin (Sigma A 9647. Lot 44H0190), 25 mM KF (Fisher), 1 mM EDTA (Gibco ULTRAPURE), 25 μM GTP-γ-S, enzyme sufficient to give 3 to 6 nmoles incorporation during the 60 min incubation at 22° C., and test compound added from wells in 3-fold serial dilutions in 100% DMSO (1 μL/well). The reaction was stopped by the addition of 100 μL of 20% trichloroacetic acid. Plates were chilled for a minimum of 10 min, and precipitated glucan collected by filtration on GF/C plates (Packard UNIFILTER®-96), washed with 5 cycles of water (about 1 mL/well each cycle) using a Packard FILTERMATE HARVESTER. 40 μL/well scintillation fluid (Packard ULTIMA GOLD TM-XR) was added and the sealed plates counted in a WALLAC BETA counter in top-counting mode at an efficiency of approximately 40%.
Stock solutions were stored at 10 mg/mL in DMSO at −20° C. For each new enzyme preparation, the initial titration performed started at 1 mg/mL, which was prepared by making a 10-fold dilution in DMSO (5 μL to 50 μL). 40 μL of this stock was placed in column 12 of a round-bottomed 96-well microtiter plate. 40 μL DMSO was added to columns 1 to 11 in the same row and ten 3-fold serial dilutions performed, by transferring 20 μL from column 12 to column 11 etc., with 4 mixings before each transfer. No test compound was transferred to from column 2 to column 1. Duplicate aliquots of 1 μL of all 12 dilutions were then transferred to the side walls of a 96-well Bioblock 1.1 mL plate (Fisher brand) to create two rows.
Graphs of the primary data were created in PRISM software (the average of two determinations) using PRISM's curve fitting program (sigmoidal dose response non-linear regression). The amount of compound required to inhibit glucan synthase activity by 50% in this assay (IC50−ng/mL) was calculated.
Routine analysis was performed with glucan synthase (GS) prepared from Candida albicans MY1055 by the following procedure: MY1055 was grown in 10 liters YPD medium (10 g yeast extract, 20 g tryptone, 20 g glucose per liter) with vigorous shaking at 30° C., to early stationary phase. Cells were harvested by centrifugation, the pellet was washed and frozen at −70° C. until breakage. Thawed pellets were shaken with an equal volume of breakage buffer (50 mM HEPES pH 7.4, 10% glycerol, 1 mM EDTA, 1 mM PMSF, 1 mM DTT) and 4 times their weight of 0.5 mm acid washed glass beads for 2 hours at 4° C. Extent of breakage was assessed visually at 40× magnification. After low speed centrifugation to remove cell debris, the supernatant was centrifuged at 100,000×g for 60 min. to separate membranes plus ribosomes from cytoplasmic components. Membranes were further washed two additional times with breakage buffer using the same centrifugation conditions and finally suspended in breakage buffer at 25 to 30 mg/mL protein (Biorad) for storage at −70° C. Extraction of GS activity from membranes was performed at a protein concentration of 5 mg/mL in extraction buffer (50 mM NaPO4 pH 7.5, 0.1 M KCl, 0.1M Na citrate, 20% glycerol, 5 μM GTP-γ-S, 1 mM DTT, 1 mM PMSF, 3 μg/mL pepstatin) plus 0.25% W1 by gentle mixing at 4° C. for 60 min, followed by centrifugation at 100,000×g for 60 min. After centrifugation, clear supernatant was removed from a pellet consisting of a hard layer usually with small amounts of gelatinous unextracted membranes above it.
Trapping was initiated immediately by 5-fold dilution in trapping buffer (50 mM HEPES pH 7.5, 10 mM KF, 1 mM EDTA, 2 mg/mL BSA) plus 2.5 mM UDPG and 10 μM GTP-γ-S. After incubation at 25° C. for 60 to 90 minutes, glucan was harvested by low speed centrifugation (3,000×g, 10 min). […]

Sequence of glucan synthase (GS) prepared from Candida albicans MY1055 (O13428 1-1897): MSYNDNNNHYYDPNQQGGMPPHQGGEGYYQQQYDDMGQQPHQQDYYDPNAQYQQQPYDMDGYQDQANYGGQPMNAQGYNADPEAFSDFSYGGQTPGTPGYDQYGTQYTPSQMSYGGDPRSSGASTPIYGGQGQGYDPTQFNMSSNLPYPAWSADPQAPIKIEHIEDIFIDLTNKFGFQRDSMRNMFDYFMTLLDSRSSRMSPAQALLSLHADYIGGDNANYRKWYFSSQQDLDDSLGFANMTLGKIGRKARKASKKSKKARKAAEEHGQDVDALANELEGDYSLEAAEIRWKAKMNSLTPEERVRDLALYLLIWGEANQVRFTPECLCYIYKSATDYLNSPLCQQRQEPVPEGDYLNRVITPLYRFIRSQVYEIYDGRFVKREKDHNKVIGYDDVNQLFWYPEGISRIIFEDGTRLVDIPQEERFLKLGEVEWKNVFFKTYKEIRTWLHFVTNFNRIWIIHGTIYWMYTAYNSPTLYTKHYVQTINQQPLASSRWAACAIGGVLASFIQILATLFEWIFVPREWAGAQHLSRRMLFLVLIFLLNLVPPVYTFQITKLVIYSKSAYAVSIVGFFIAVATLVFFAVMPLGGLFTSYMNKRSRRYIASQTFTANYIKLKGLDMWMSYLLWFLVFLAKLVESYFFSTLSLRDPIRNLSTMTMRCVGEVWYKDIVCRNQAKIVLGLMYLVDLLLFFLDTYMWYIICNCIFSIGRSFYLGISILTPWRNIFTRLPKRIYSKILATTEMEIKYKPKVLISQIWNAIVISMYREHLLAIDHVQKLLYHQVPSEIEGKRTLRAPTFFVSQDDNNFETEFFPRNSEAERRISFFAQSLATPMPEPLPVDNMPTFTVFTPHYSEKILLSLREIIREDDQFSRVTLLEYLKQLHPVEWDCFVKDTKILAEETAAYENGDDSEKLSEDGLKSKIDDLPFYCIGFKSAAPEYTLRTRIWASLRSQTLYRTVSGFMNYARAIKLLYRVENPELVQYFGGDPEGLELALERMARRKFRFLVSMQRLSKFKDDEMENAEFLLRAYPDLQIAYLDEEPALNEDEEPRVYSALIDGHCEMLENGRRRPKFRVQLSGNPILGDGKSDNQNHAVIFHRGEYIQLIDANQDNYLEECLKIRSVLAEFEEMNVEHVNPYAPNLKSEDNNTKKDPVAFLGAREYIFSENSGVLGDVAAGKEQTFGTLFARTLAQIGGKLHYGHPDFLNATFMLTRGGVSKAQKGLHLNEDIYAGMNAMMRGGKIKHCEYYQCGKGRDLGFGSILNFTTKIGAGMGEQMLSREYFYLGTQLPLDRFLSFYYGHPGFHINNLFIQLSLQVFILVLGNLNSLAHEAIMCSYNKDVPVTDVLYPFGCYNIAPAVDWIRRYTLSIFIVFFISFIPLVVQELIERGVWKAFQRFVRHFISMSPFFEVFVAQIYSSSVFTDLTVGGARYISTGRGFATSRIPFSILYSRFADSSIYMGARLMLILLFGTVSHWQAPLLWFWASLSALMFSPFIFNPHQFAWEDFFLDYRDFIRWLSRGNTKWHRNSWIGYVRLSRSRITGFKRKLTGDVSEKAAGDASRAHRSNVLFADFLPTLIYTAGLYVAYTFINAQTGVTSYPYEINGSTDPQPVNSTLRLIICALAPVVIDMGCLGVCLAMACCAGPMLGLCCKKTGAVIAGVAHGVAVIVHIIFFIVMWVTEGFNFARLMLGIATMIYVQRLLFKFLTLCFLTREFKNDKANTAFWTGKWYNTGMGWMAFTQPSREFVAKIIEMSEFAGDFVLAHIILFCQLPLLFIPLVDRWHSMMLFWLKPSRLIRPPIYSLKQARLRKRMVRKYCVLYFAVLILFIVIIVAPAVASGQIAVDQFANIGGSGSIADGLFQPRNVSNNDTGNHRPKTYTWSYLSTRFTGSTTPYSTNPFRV

| Compound | IC50 [nM] |
| --- | --- |
| CN[C@@](C)(CO[C@H]1[C@H](n2ncnc2C(=O)NC2CC2)C[C@@]23COC[C@]1(C)[C@@H]2CC[C@H]1C3=CC[C@@]2(C)[C@H](C(=O)O)[C@@](C)([C@H](C)C(C)C)CC[C@]12C)C(C)C [Example 64, (1S,4aR,6aS,7R,8R,10aR,10bR,12aR,14R,15R)-14-[5-[(cyclopropylamino)carbonyl]-1H-1,2,4-triazol-1-yl]-15-[[(2R)-2,3-dimethyl-2-(methylamino)butyl]oxy]-8-[(1R)-1,2-dimethylpropyl]-1,6,6a,7,8,9,10,10a,10b,11,12,12a-dodecahydro-1,6a,8,10a-tetramethyl-4H-1,4a-propano-2H-phenanthro[1,2-c]pyran-7-carboxylic acid] | 13.6 |
| CN[C@@](C)(CO[C@H]1[C@H](n2ncnc2C(=O)NCCF)C[C@@]23COC[C@]1(C)[C@@H]2CC[C@H]1C3=CC[C@@]2(C)[C@H](C(=O)O)[C@@](C)([C@H](C)C(C)C)CC[C@]12C)C(C)C [Example 77, (1S,4aR,6aS,7R,8R,10aR,10bR,12aR,14R,15R)-15-[[(2R)-2,3-dimethyl-2-(methylamino)butyl]oxy]-8-[(1R)-1,2-dimethylpropyl]-14-[5-[[(2-fluoroethyl)amino]carbonyl]-1H-1,2,4-triazol-1-yl]-1,6,6a,7,8,9,10,10a,10b,11,12,12a-dodecahydro-1,6a,8,10a-tetramethyl-4H-1,4a-propano-2H-phenanthro[1,2-c]pyran-7-carboxylic acid] | 8.09 |
| CC(C)[C@@H](C)[C@@]1(C)CC[C@]2(C)[C@H]3CC[C@@H]4[C@@]5(COC[C@@]4(C)[C@@H](OC[C@](C)(N)C(C)C)[C@H](n4ncnc4C(=O)NCC(F)(F)F)C5)C3=CC[C@@]2(C)[C@@H]1C(=O)O [Example 80, (1S,4aR,6aS,7R,8R,10aR,10bR,12aR,14R,15R)-15-[[(2R)-2-amino-2,3-dimethylbutyl]oxy]-8-[(1R)-1,2-dimethylpropyl]-14-[5-[[(2,2,2-trifluoroethyl)amino]carbonyl]-1H-1,2,4-triazol-1-yl]-1,6,6a,7,8,9,10,10a,10b,11,12,12a-dodecahydro-1,6a,8,10a-tetramethyl-4H-1,4a-propano-2H-phenanthro[1,2-c]pyran-7-carboxylic acid] | 10.5 |
| CC(C)[C@@H](C)[C@@]1(C)CC[C@]2(C)[C@H]3CC[C@@H]4[C@@]5(COC[C@@]4(C)[C@@H](OC[C@](C)(N)C(C)C)[C@H](n4ncnc4C(=O)NCCN(C)C)C5)C3=CC[C@@]2(C)[C@@H]1C(=O)O [Example 83, (1S,4aR,6aS,7R,8R,10aR,10bR,12aR,14R,15R)-15-[[(2R)-2-amino-2,3-dimethylbutyl]oxy]-14-[5-[[[2-(dimethylamino)ethyl]amino]carbonyl]-1H-1,2,4-triazol-1-yl]-8-[(1R)-1,2-dimethylpropyl]-1,6,6a,7,8,9,10,10a,10b,11,12,12a-dodecahydro-1,6a,8,10a-tetramethyl-4H-1,4a-propano-2H-phenanthro[1,2-c]pyran-7-carboxylic acid] | 12 |
| CNC(=O)c1ncnn1[C@@H]1C[C@@]23COC[C@](C)([C@@H]2CC[C@H]2C3=CC[C@@]3(C)[C@H](C(=O)O)[C@@](C)([C@H](C)C(C)C)CC[C@]23C)[C@H]1OC[C@](C)(N)C(C)(C)C [Example 89, (1S,4aR,6aS,7R,8R,10aR,10bR,12aR,14R,15R)-15-[[(2R)-2-amino-2,3,3-trimethylbutyl]oxy]-8-[(1R)-1,2-dimethylpropyl]-14-[5-[(methylamino)carbonyl]-1H-1,2,4-triazol-1-yl]-1,6,6a,7,8,9,10,10a,10b,11,12,12a-dodecahydro-1,6a,8,10a-tetramethyl-4H-1,4a-propano-2H-phenanthro[1,2-c]pyran-7-carboxylic acid] | 11.3 |

Further lines, results first:

| IC50 [nM] | Compound |
| --- | --- |
| 4.31 | CC(C)[C@@H](C)[C@@]1(C)CC[C@]2(C)[C@H]3CC[C@@H]4[C@@]5(COC[C@@]4(C)[C@@H](OC[C@](C)(N)C(C)(C)C)[C@H](n4ncnc4C(N)=O)C5)C3=CC[C@@]2(C)[C@@H]1C(=O)O [Example 44, (1S,4aR,6aS,7R,8R,10aR,10bR,12aR,14R,15R)-14-[5-(aminocarbonyl)-1H-1,2,4-triazol-1-yl]-15-[[(2R)-2-amino-2,3,3-trimethylbutyl]oxy]-8-[(1R)-1,2-dimethylpropyl]-1,6,6a,7,8,9,10,10a,10b,11,12,12a-dodecahydro-1,6a,8,10a-tetramethyl-4H-1,4a-propano-2H-phenanthro[1,2-c]pyran-7-carboxylic acid] |
| 70.5 | CC(C)[C@@H](C)[C@@]1(C)CC[C@]2(C)[C@H]3CC[C@@H]4[C@@]5(COC[C@@]4(C)[C@@H](OC[C@](C)(N)C(C)C)[C@H](n4ncnc4C(=O)N4CCOCC4)C5)C3=CC[C@@]2(C)[C@@H]1C(=O)O [Example 86, (1S,4aR,6aS,7R,8R,10aR,10bR,12aR,14R,15R)-15-[[(2R)-2-amino-2,3-dimethylbutyl]oxy]-8-[(1R)-1,2-dimethylpropyl]-14-[5-(4-morpholinylcarbonyl)-1H-1,2,4-triazol-1-yl]-1,6,6a,7,8,9,10,10a,10b,11,12,12a-dodecahydro-1,6a,8,10a-tetramethyl-4H-1,4a-propano-2H-phenanthro[1,2-c]pyran-7-carboxylic acid] |
| 11.7 | CC(C)[C@@H](C)[C@@]1(C)CC[C@]2(C)[C@H]3CC[C@@H]4[C@@]5(COC[C@@]4(C)[C@@H](OC[C@H](N)C(C)(C)C)[C@H](n4ncnc4C(N)=O)C5)C3=CC[C@@]2(C)[C@@H]1C(=O)O [Example 97, (1S,4aR,6aS,7R,8R,10aR,10bR,12aR,14R,15R)-14-[5-(aminocarbonyl)-1H-1,2,4-triazol-1-yl]-15-[[(2R)-2-amino-3,3-dimethylbutyl]oxy]-8-[(1R)-1,2-dimethylpropyl]-1,6,6a,7,8,9,10,10a,10b,11,12,12a-dodecahydro-1,6a,8,10a-tetramethyl-4H-1,4a-propano-2H-phenanthro[1,2-c]pyran-7-carboxylic acid] |
| 29 | CCCNC(=O)c1ncnn1[C@@H]1C[C@@]23COC[C@](C)([C@@H]2CC[C@H]2C3=CC[C@@]3(C)[C@H](C(=O)O)[C@@](C)([C@H](C)C(C)C)CC[C@]23C)[C@H]1OC[C@@](C)(N)C(C)C [Example 105, (1S,4aR,6aS,7R,8R,10aR,10bR,12aR,14R,15R)-15-[[(2S)-2-amino-2,3-dimethylbutyl]oxy]-8-[(1R)-1,2-dimethylpropyl]-14-[5-[(propylamino)carbonyl]-1H-1,2,4-triazol-1-yl]-1,6,6a,7,8,9,10,10a,10b,11,12,12a-dodecahydro-1,6a,8,10a-tetramethyl-4H-1,4a-propano-2H-phenanthro[1,2-c]pyran-7-carboxylic acid] |
| 19.8 | CNC1(CO[C@H]2[C@H](n3ncnc3C(N)=O)C[C@@]34COC[C@]2(C)[C@@H]3CC[C@H]2C4=CC[C@@]3(C)[C@H](C(=O)O)[C@@](C)([C@H](C)C(C)C)CC[C@]23C)CCCCC1 [Example 107, (1S,4aR,6aS,7R,8R,10aR,10bR,12aR,14R,15R)-14-[5-(aminocarbonyl)-1H-1,2,4-triazol-1-yl]-8-[(1R)-1,2-dimethylpropyl]-15-[[1-(methylamino)cyclohexyl]methoxy]-1,6,6a,7,8,9,10,10a,10b,11,12,12a-dodecahydro-1,6a,8,10a-tetramethyl-4H-1,4a-propano-2H-phenanthro[1,2-c]pyran-7-carboxylic acid] |

Source: patent US8188085B2, “Antifungal agents” (Merck Sharp & Dohme Corp., priority 2008, dated 2012)
